The values below come from PMC11831473 (Advanced Science, 2024).

Each structure is given as a SMILES string.

In this test the target is T1, Tumor necrosis factor receptor-associated factor 4 (TRAF4) (Homo sapiens, UniProt Q9BUZ4).
T1 construct: GFP-TRAF4 (MST)
T1 sequence (Q9BUZ4 1-470): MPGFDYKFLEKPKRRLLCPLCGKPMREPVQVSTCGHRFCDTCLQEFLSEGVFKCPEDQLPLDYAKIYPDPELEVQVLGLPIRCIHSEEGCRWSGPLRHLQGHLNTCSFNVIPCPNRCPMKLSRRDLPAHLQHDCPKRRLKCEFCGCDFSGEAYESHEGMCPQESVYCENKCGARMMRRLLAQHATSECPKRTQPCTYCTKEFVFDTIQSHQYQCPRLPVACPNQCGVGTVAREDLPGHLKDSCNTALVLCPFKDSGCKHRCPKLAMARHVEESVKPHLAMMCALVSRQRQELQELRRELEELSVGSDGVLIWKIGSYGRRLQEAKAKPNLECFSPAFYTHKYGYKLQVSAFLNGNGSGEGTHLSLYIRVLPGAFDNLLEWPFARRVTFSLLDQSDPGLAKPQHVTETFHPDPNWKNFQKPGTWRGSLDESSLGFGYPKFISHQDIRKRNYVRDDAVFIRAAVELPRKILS
The test is described as follows: ITC (Kd […]); also MST (Kd […]), competition of biotin-OA pull-down, CETSA. The class given is binding.

`COc1c(O)cc2oc(-c3ccccc3)cc(=O)c2c1O` [OA, Oroxylin A] returned a Kd of 1.1 µM.

What is called Kd is the constant that tells how readily two partners part at equilibrium.
